Laboratory results published in patent US8455439B2, “Antidotes for factor Xa inhibitors and methods of using the same in combination with blood coagulating agents” (Portola Pharmaceuticals, Inc., priority 2008, dated 2013).
Values joined by “and” are separate entries in the source; they are usually repeats but may differ in a detail not shown here. Identical values can stand only once.

Legend:
pooled human plasma [1] = experiment: Prothrombin time (PT) clotting assay, MLA Electra 800 automatic coagulation timer; assay type: biochemical; details: 1 μM rivaroxaban alone (baseline 12.2 sec)
[2] = cited from earlier work
[3] = system: thrombin generation in human plasma; experiment: Thrombin generation assay in platelet poor or platelet rich plasma; assay type: biochemical; details: 250 nM betrixaban, at all rfVIIa concentrations tested (50-200 nM) with tissue factor; FIG. 4
Description: PRP and PPP were prepared by spinning the anticoagulated blood at ˜100× gravity or 1000× gravity for 20 minutes, respectively, at room temperature. 75-100 microliter (uL) plasma was mixed with CaCl2 and Z-Gly-Gly-Arg-aminomethylcoumarin (Z-GGR-AMC, a thrombin fluorogenic substrate). Tissue factor (Innovin, Dade Behring) was added to initiate the generation of thrombin. For a typical experiment, the reaction mixture contained 15 millimolar (mM) Ca^2+, 100 micromolar (μM) Z-GGR-AMC, and 0.1 nanomolar (nM) tissue factor (TF) (Innovin). Thrombin formation was monitored continuously at 37° C. by a fluorometric plate reader (Molecular Devices) measuring the relative fluorescence units (RFU). Inhibitor and antidote, when present, were pre-incubated with plasma for 20 minutes at room temperature before initiation of thrombin generation.
PRP and PPP were prepared by spinning the anticoagulated blood at ˜100× gravity or 1000× gravity for 20 minutes, respectively, at room temperature. […] Tissue factor (Innovin, Dade Behring) and CaCl2 were added to initiate the generation of thrombin. […] Thrombin formation was monitored continuously at 37° C. by a fluorometric plate reader (Molecular Devices) measuring the relative fluorescence units (RFU). […]

pooled human plasma [4] = experiment: aPTT clotting assay, MLA Electra 800 automatic coagulation timer; assay type: biochemical
Description: Two clotting assay formats were used to test the effects of factor Xa inhibitors and the antidote on clotting prolongation. […] In the second assay format, aPTT was measured with a conventional coagulation instrument (MLA Electra 800 automatic coagulation timer).
The effect of 1 antiXa Unit/mL LMWH on aPTT prolongation of plasma and the reversal of inhibitory effect was measured by a MLA Electra 800 Automatic coagulation timer. 100 μL pooled citrate anticoagulated human plasma was mixed with enoxaparin and different concentrations of antidote. Prior to measurement of clotting time, aPTT reagent (Actin FS, Dade Behring) and CaCl2 were added per manufacturer's instructions.

[5] = system: human platelet poor plasma; experiment: Clotting prolongation assay, 96-well plate format (OD405 turbidity change, aPTT reagent); assay type: biochemical; details: 125 nM betrixaban, no r-Antidote, no FX; FIG. 26

O=C(NC[C@H]1CN(c2ccc(N3CCOCC3=O)cc2)C(=O)O1)c1ccc(Cl)s1 [rivaroxaban]
PT (pooled human plasma [1]): 25 ± 0.4 s
peak plasma concentrations ([2]; clinically effective doses): ≤ 318 ng/ml and ≤ 730 nM
therapeutic concentrations ([2]; reported, Kubitza 2005): approximately 600 nM

[2-({4-[(dimethylamino)iminomethyl]phenyl}carbonylamino)-5-methoxyphenyl]-N-(5-chloro(2-pyridyl))carboxamide [betrixaban]
inhibition of fXa by betrixaban (thrombin generation) [3]: about 75%
aPTT (pooled human plasma [4]; 300 nM Betrixaban alone): 61.8 s
aPTT (pooled human plasma [4]; 400 nM Betrixaban alone (Table 17)): 66.3 s
aPTT (pooled human plasma [4]; 400 nM betrixaban alone (Example 17, baseline 25.5 sec)): 51.6 ± 0.4 s
extension of aPTT (pooled human plasma [4]; 400 nM betrixaban, FIG. 13): more than two folds
effect on clotting time [5]: doubled the clotting time

fIX: human plasma derived blood coagulation factor IX (Haematologic Technologies)
aPTT (pooled human plasma [4]; 258 nM fIX, 400 nM betrixaban): 43.8 s
correction of aPTT (pooled human plasma [4]; 258 nM fIX, 400 nM betrixaban): 15%
correction of aPTT (pooled human plasma [4]; 387 nM fIX, 400 nM betrixaban): 15%
effect on aPTT in human plasma (pooled human plasma [4]; fIX, absence of betrixaban, FIG. 25): slightly reduced aPTT
